Like-named read-outs stand apart in the source and are kept apart here.
Tests used:
Format in all cases: cell-based
human GLUT1 = biological target: T1, human GLUT1 (Homo sapiens, UniProt P11166); test: [3H]-deoxy-D-glucose uptake assay, GLUT1; settings: [3H]-deoxy-D-glucose uptake in HEK293 cells stably expressing human GLUT1
T1 construct: expressed in transfected cells
T1 sequence (P11166 1-492): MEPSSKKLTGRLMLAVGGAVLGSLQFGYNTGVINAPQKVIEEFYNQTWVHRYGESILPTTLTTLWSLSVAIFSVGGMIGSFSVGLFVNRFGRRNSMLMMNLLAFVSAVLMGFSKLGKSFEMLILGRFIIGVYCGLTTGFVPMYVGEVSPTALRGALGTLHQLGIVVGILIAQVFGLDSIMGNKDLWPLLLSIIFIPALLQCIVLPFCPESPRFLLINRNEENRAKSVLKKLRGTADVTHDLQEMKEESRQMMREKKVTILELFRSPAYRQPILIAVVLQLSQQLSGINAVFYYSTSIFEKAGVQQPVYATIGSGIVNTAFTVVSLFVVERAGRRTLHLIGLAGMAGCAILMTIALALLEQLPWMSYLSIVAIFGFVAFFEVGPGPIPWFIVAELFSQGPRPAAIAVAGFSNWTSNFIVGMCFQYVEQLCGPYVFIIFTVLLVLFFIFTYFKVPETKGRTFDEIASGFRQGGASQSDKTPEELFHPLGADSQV
Method in brief: (§1)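 HEK293 cells stably overexpressing human GLUT1 or GLUT2, seeded at 60,000 per well, treated with compounds in glucose-free uptake buffer for 30 min at 37 °C. [3H]-deoxy-D-glucose uptake quantified by scintillation counting after ice-cold PBS washes; IC50 determined.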

A549 cells = test: Lactate production assay (lactate secretion, 5 or 17 mM glucose); settings: Homo sapiens, 4 hours incubation
Procedure: A549 cells were grown in DMEM/F12K+L-Glutamine supplemented with 10% foetal bovine serum. Cells were re-suspended in assay media (DMEM without phenol red, pyruvate and glucose, 10% foetal bovine serum, 2 mM L-Glutamine and 5 or 17 mM glucose) and seeded at 40×10^3 cells per well into 96-well plates and incubated overnight. Increasing concentrations of the test compound (compound 155) and vehicle control were added and incubated for 4 hours at 37° C., 5% CO2. Lactate reagent was added (Trinity Biotech), the plates were incubated in the dark for 7 min at room temperature before capturing the absorbance at 540 nm using a plate reader.

[1] = test system: A549 adenocarcinoma NucLight Red cells; test: Cell growth (proliferation) assay, NucLight Red, IncuCyte; settings: Homo sapiens, AUC analysis of first 24 hours of compound exposure
Procedure: (§2) A549 adenocarcinoma NucLight Red cells were grown in Ham's F12K medium supplemented with 10% foetal bovine serum, 2 mM Glutamax, 1% pen/strep and 0.5 μg ml-l puromycin. Cells were seeded at 1×10^4 cells per well into 384-well microtitre-plates with media containing 5 mM (FIGS. 3A and 3C) or 17 mM glucose (FIGS. 3B and 3D). The cells were left to adhere before the addition of increasing concentration of test compound (compound 155) and vehicle control. The cells stably expressed Essen CellPlayer NucLight Red Fluorescent Protein to allow measurement of cell proliferation (FIGS. 3 A and B). The culture medium contained Essen CellPlayer 96-well Kinetic Caspase 3/7-reagent and Biotium DEVD-NucView 488 to allow measurement of apoptosis induction (FIGS. 3 C and D). Cells were monitored continuously for 48 hours of compound exposure using Essen IncuCyte.
(§3) pIC50 values for the proliferation and apoptosis assays were derived from area under the curve (AUC) analysis of data from the first 24 hours of compound exposure.

[2] = test system: A549 adenocarcinoma NucLight Red cells; test: Apoptosis induction assay, Caspase 3/7 reagent, IncuCyte; settings: Homo sapiens, Caspase 3/7, AUC analysis of first 24 hours of compound exposure
Procedure: as §2, §3

[3] = test system: [3H]-deoxy-D-glucose uptake; test: Glucose uptake assay with compound 155 (inhibition of [3H]-deoxy-D-glucose uptake, FIG. 2A); settings: read-out: Glucose Uptake pIC50 (converted)
human GLUT2 = biological target: T2, human GLUT2 (Homo sapiens, UniProt P11168); test: [3H]-deoxy-D-glucose uptake assay, GLUT2; settings: [3H]-deoxy-D-glucose uptake in HEK293 cells stably expressing human GLUT2
T2 construct: expressed in transfected cells
T2 sequence (P11168 1-524): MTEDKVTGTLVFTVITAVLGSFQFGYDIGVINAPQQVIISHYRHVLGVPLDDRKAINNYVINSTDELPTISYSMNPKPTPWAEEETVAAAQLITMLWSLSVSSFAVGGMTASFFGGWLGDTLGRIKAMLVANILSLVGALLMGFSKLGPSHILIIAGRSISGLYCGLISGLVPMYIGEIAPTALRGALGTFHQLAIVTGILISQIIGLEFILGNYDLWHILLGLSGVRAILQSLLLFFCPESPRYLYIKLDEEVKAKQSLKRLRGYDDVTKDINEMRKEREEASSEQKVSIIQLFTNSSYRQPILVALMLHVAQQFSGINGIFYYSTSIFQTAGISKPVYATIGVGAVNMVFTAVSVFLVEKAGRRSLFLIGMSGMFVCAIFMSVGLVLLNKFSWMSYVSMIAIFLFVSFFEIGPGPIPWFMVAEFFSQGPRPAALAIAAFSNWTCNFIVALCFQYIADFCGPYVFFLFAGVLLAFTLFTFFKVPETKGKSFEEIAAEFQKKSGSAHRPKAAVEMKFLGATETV
Method in brief: as §1

human GLUT3 = biological target: T3, human GLUT3 (Homo sapiens, UniProt P11169); test: [3H]-deoxy-D-glucose uptake assay, GLUT3; settings: [3H]-deoxy-D-glucose uptake in HEK293 cells stably expressing human GLUT3
T3 construct: expressed in transfected cells
T3 sequence (P11169 1-496): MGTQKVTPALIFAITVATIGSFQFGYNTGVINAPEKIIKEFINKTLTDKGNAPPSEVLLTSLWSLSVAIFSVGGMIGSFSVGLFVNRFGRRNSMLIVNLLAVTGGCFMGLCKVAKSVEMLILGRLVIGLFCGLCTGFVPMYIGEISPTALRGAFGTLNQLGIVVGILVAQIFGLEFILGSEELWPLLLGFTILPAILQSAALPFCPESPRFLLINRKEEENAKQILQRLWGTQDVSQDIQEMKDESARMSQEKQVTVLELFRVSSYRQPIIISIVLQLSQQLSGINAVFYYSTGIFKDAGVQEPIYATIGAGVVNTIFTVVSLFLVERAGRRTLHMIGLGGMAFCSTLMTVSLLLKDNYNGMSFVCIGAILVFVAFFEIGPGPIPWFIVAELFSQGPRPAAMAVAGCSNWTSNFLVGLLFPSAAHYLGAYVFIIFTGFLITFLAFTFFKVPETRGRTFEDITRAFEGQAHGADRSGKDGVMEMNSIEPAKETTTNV
Method in brief: (§4)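 HEK293 cells stably overexpressing human GLUT3 or GLUT4, preincubated with compound 30 min at 37 °C in glucose-free HEPES buffer pH 7.4. [3H]-deoxy-D-glucose (125 μM final) uptake then run 30 min at 37 °C, quantified by scintillation counting; IC50 determined.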

human GLUT4 = biological target: T4, human GLUT4 (Homo sapiens, UniProt P14672); test: [3H]-deoxy-D-glucose uptake assay, GLUT4; settings: [3H]-deoxy-D-glucose uptake in HEK293 cells stably expressing human GLUT4
T4 construct: expressed in transfected cells
T4 sequence (P14672 1-509): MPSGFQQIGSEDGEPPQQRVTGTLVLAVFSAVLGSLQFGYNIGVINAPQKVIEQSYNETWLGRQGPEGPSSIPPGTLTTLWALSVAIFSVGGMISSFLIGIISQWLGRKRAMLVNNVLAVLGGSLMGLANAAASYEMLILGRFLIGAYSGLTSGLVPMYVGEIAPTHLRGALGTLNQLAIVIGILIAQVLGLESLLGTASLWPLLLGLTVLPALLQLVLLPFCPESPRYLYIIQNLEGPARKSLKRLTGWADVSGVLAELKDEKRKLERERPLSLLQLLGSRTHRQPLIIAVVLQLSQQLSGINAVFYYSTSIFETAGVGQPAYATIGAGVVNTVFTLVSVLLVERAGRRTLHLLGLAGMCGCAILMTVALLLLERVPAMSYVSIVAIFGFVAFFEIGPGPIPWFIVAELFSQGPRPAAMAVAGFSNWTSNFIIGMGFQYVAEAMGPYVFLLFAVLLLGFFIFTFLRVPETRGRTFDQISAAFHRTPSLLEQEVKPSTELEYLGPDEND
Method in brief: as §4

GLUT1 pIC50 (human GLUT1)	IC50 (A549 cells; 5 mM glucose, read-out: Lactate Secretion (5 mM glucose) pIC50 (converted)) [nM]	IC50 (A549 cells; 17 mM glucose, read-out: Lactate Secretion (17 mM glucose) pIC50 (converted)) [nM]	IC50 ([1]; 5 mM glucose, read-out: Proliferation (5 mM glucose) pIC50 (converted)) [nM]	IC50 ([1]; 17 mM glucose, read-out: Proliferation (17 mM glucose) pIC50 (converted)) [nM]	IC50 ([2]; 5 mM glucose, read-out: Apoptosis (5 mM glucose) pIC50 (converted)) [nM]	IC50 ([2]; 17 mM glucose, read-out: Apoptosis (17 mM glucose) pIC50 (converted)) [nM]	IC50 [3] [nM]	GLUT2 pIC50 (human GLUT2)	GLUT3 pIC50 (human GLUT3)	GLUT4 pIC50 (human GLUT4)	SMILES
+++ (pIC50 ≧ 6.00)	–	–	–	–	–	–	–	+++ (pIC50 ≧ 6.00)	+++ (pIC50 ≧ 6.00)	+++ (pIC50 ≧ 6.00)	CN(c1ccc2nc(-c3ccc(Cl)cc3Cl)c(CN3CCN(C(=O)C4CCOCC4)CC3)n2c1)S(C)(=O)=O [Compound 372]
+++ (pIC50 ≧ 6.00)	–	–	–	–	–	–	–	+++ (pIC50 ≧ 6.00)	+++ (pIC50 ≧ 6.00)	+++ (pIC50 ≧ 6.00)	CN(c1ccc2nc(-c3ccc(Cl)cc3Cl)c(CN3CCN4C(=O)CCC4C3)n2c1)S(C)(=O)=O (centres unmarked) [Compound 374]
+++ (pIC50 ≧ 6.00)	–	–	–	–	–	–	–	++ (pIC50 5.00-5.99)	+++ (pIC50 ≧ 6.00)	+++ (pIC50 ≧ 6.00)	CN(c1ccc2nc(-c3ccc(Cl)cc3Cl)c(CN3CCN(C(=O)C(C)(C)O)CC3)n2c1)S(C)(=O)=O [Compound 381]
+++ (pIC50 ≧ 6.00)	–	–	–	–	–	–	–	++ (pIC50 5.00-5.99)	+++ (pIC50 ≧ 6.00)	+++ (pIC50 ≧ 6.00)	CCS(=O)(=O)c1ccc2nc(-c3ccc(Cl)cc3)c(CN3CCN(C(C)=O)CC3)n2c1 [Compound 385]

Continued, compound first:

SMILES	GLUT1 pIC50 (human GLUT1)	IC50 (A549 cells; 5 mM glucose, read-out: Lactate Secretion (5 mM glucose) pIC50 (converted)) [nM]	IC50 (A549 cells; 17 mM glucose, read-out: Lactate Secretion (17 mM glucose) pIC50 (converted)) [nM]	IC50 ([1]; 5 mM glucose, read-out: Proliferation (5 mM glucose) pIC50 (converted)) [nM]	IC50 ([1]; 17 mM glucose, read-out: Proliferation (17 mM glucose) pIC50 (converted)) [nM]	IC50 ([2]; 5 mM glucose, read-out: Apoptosis (5 mM glucose) pIC50 (converted)) [nM]	IC50 ([2]; 17 mM glucose, read-out: Apoptosis (17 mM glucose) pIC50 (converted)) [nM]	IC50 [3] [nM]	GLUT2 pIC50 (human GLUT2)	GLUT3 pIC50 (human GLUT3)	GLUT4 pIC50 (human GLUT4)
N#Cc1ccccc1-c1ccc2nc(-c3ccc(Cl)cc3)c(CN3CCN(C(=O)c4cccc(F)c4)CC3)n2c1 [Compound 155]	+++ (pIC50 ≧ 6.00)	77.6	398	< 126	380	316	813	25.7	–	–	–
CN(c1ccc2nc(-c3ccc(Cl)cc3Cl)c(CN3CCN(C(=O)c4ccnnc4)CC3)n2c1)S(C)(=O)=O [Compound 370]	+++ (pIC50 ≧ 6.00)	–	–	–	–	–	–	–	+++ (pIC50 ≧ 6.00)	+++ (pIC50 ≧ 6.00)	+++ (pIC50 ≧ 6.00)
CS(=O)(=O)Nc1ccc2nc(-c3ccc(Cl)cc3Cl)c(CN3CCN4C(=O)CCC4C3)n2c1 (centres unmarked) [Compound 373]	+++ (pIC50 ≧ 6.00)	–	–	–	–	–	–	–	+++ (pIC50 ≧ 6.00)	+++ (pIC50 ≧ 6.00)	+++ (pIC50 ≧ 6.00)
CSc1ccc2nc(-c3ccc(Cl)cc3)c(CN3CCN(C(C)=O)CC3)n2c1 [Compound 377]	++ (pIC50 5.00-5.99)	–	–	–	–	–	–	–	++ (pIC50 5.00-5.99)	+++ (pIC50 ≧ 6.00)	+++ (pIC50 ≧ 6.00)
CC(=O)N1CCN(Cc2c(-c3ccc(Cl)cc3)nc3ccc(S(C)(=O)=O)cn23)CC1 [Compound 378]	+++ (pIC50 ≧ 6.00)	–	–	–	–	–	–	–	+− (pIC50 < 4.00)	+++ (pIC50 ≧ 6.00)	+++ (pIC50 ≧ 6.00)
CC(=O)N1CCN(Cc2c(-c3ccc(Cl)cc3)nc3ccc(S(=O)(=O)C(C)C)cn23)CC1 [Compound 382]	+++ (pIC50 ≧ 6.00)	–	–	–	–	–	–	–	++ (pIC50 5.00-5.99)	+++ (pIC50 ≧ 6.00)	+++ (pIC50 ≧ 6.00)

— US20160120863A1, “SLC2A TRANSPORTER INHIBITORS” (IOMET PHARMA LTD., priority 2013, published 2016)
